ChEMBL document CHEMBL3301562, “MMV Box screening against Plasmodium falciparum protein kinases and aminoacyl tRNA synthetases”
pIC50: −log10 of the molar value.

Key:
Format in all cases: functional
[1] = biological target: T1, Calcium-dependent protein kinase 4 (Plasmodium falciparum (isolate 3D7), UniProt Q8IBS5); experiment: MMV: CDPK4 Protein kinase inhibition assay using recombinant PfCDPK4, syntide2 peptide substrate, ATP and KinaseGlo to measure % inhibition at 1 uM MMV box compound.
T1 sequence (Q8IBS5 whole entry): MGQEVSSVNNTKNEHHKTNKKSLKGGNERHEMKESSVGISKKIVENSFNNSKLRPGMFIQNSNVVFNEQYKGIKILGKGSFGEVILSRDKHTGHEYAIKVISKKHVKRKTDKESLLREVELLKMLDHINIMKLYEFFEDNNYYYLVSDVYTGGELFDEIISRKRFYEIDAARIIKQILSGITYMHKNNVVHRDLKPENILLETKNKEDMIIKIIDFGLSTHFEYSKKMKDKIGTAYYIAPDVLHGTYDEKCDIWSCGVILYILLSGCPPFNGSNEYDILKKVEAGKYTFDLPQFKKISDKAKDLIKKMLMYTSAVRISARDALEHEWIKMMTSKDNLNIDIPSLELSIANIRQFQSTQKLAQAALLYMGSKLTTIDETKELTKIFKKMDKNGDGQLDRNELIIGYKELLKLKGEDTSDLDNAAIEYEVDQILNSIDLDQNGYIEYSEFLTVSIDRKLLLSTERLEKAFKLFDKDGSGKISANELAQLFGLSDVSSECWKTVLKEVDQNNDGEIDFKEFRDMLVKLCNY

[2] = biological target: T2, Cdk-related protein kinase 6 (Plasmodium falciparum, UniProt O77239); experiment: Final concentrations were 1.5 uM ATP, 5 mM MnCl2, and 15 ug/ml PK6 in a buffer of 100 mM Tris-HCl (pH 7.5). 50 ug/mL MBP was provided as the substrate; 10 uM staurosporine was used as a control inhibitor. Incubation time was 3 hours and 40 minutes.The catalytic activity of each kinase was considered proportional to ATP consumed, as determined from measurements of residual [ATP] with the luciferase-based reagent Kinase-Glo (Promega) following incubation. Luminescence (proportional to residual [ATP]) was measured on the plate readers FLx800 (BioTek Instruments, Winooski, VT, USA) and MicroBeta2.
T2 sequence (O77239 whole entry): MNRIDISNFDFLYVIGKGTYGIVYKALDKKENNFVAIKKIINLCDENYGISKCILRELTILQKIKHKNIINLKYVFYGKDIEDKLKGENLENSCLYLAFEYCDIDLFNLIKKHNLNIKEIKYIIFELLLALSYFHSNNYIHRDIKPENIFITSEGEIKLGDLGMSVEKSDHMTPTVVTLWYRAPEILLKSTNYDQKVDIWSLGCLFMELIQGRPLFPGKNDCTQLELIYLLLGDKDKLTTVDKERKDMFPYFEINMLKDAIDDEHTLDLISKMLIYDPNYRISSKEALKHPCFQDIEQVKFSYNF

Lysine--tRNA ligase = Lysine--tRNA ligase (Plasmodium falciparum (isolate 3D7), UniProt Q8IDJ8); experiment: MMV: KRS recombinant Plasmodium falciparum Lysyl-tRNA-synthetase, assay with yeast tRNA, ATP, and lysine and 3 uM MMV malaria box compound, assay read out with kinase glo as % inhibition.
Lysine--tRNA ligase, sequence (Q8IDJ8 whole entry): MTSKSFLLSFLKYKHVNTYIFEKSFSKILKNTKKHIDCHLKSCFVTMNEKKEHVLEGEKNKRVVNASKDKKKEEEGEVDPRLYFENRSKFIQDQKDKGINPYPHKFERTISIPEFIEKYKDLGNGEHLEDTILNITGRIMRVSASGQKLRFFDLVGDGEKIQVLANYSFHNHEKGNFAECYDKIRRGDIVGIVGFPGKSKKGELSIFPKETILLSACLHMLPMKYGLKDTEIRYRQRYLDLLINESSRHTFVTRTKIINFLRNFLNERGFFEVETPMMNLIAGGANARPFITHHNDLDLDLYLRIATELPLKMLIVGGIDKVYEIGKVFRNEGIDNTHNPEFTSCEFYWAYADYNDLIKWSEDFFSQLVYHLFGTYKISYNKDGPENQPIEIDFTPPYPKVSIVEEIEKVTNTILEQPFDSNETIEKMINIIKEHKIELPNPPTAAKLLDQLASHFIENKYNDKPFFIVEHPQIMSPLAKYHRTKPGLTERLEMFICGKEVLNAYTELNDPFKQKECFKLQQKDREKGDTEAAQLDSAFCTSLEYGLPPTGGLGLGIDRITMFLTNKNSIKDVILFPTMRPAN

[3] = biological target: Calcium-dependent protein kinase 1 (Plasmodium falciparum, UniProt P62344); experiment: MMV: CDPK1 Protein kinase inhibition assay using recombinant PfCDPK1, syntide 2 peptide substrate, ATP and KinaseGlo to measure % inhibition at 1 uM MMV box compound.
Calcium-dependent protein kinase 1, sequence (P62344 whole entry): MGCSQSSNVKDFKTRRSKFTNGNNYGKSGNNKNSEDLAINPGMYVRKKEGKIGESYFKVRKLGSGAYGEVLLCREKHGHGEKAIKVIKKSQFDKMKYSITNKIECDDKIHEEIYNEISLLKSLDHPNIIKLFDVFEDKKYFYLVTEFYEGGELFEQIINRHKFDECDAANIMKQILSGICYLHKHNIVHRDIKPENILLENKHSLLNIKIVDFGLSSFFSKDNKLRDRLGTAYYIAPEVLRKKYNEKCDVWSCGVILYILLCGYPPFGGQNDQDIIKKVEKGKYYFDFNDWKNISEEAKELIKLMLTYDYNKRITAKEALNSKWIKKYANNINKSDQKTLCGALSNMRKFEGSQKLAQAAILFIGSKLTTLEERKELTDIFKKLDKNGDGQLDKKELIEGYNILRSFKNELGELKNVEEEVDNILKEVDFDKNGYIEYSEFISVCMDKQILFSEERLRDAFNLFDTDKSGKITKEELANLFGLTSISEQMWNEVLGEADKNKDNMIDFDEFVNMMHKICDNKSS

Proline--tRNA ligase = biological target: T3, Proline--tRNA ligase (Plasmodium falciparum (isolate 3D7), UniProt Q8I5R7); experiment: MMV: ProRS recombinant Plasmodium falciparum Prolyl-tRNA-synthetase, assay with yeast tRNA, ATP, and proline and 3 uM MMV malaria box compound, assay read out with kinase glo as % inhibition.
T3 sequence (Q8I5R7 whole entry): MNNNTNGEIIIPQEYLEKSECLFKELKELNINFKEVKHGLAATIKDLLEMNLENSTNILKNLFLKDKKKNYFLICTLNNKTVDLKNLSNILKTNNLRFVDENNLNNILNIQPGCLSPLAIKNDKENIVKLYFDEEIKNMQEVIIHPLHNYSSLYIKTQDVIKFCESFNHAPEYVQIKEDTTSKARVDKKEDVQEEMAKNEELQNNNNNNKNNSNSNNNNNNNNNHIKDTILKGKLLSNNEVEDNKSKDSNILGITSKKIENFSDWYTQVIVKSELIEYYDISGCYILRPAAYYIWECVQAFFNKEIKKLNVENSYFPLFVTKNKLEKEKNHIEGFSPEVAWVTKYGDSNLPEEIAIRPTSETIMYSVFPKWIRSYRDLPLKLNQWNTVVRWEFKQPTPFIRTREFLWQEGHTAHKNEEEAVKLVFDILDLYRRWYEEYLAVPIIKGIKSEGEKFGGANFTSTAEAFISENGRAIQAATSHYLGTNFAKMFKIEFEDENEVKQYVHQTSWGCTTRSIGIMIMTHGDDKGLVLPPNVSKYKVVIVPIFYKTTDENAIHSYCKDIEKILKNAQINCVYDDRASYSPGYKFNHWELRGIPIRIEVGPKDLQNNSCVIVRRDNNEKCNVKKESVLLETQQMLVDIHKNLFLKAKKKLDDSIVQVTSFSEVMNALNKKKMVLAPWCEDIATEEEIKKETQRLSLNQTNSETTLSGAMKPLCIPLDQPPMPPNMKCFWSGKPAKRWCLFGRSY

[4] = biological target: T4, Mitogen-activated protein kinase (Plasmodium falciparum, UniProt Q25917); experiment: Final concentrations were 1 uM ATP, 0.5 mM DTT, 1 mM MgCl2, 0.5 mg/mL BSA, and 10 ug/ml MAP2 in a buffer of 50 mM HEPES (pH 7.0). 0.5 mg/mL histone III-S served as the substrate (13); 100 uM AMP-PNP, an ATP analog, was used as a control inhibitor. Incubation time was 4 hours.
T4 sequence (Q25917 whole entry): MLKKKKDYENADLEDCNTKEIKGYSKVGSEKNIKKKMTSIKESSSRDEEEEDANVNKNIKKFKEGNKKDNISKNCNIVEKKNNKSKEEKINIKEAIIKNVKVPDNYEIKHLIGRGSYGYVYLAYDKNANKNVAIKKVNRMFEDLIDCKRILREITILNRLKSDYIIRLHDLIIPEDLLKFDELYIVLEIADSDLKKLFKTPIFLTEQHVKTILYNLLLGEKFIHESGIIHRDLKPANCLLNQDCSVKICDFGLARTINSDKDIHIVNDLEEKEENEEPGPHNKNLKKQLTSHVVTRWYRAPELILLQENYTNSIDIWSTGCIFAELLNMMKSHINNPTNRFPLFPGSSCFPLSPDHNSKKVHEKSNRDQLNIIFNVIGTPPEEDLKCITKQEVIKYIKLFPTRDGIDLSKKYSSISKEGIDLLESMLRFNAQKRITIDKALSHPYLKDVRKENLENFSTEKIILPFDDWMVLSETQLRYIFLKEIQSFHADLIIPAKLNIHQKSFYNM

[5] = biological target: T5, Putative uncharacterized protein pk7 (Plasmodium falciparum, UniProt O96214); experiment: Final concentrations were 1 uM ATP, 2 mM DTT, 20 mM MgCl2, 2 mM MnCl2, 0.01% BSA, and 6 ug/ml PK7, in a buffer of 20 mM Tris-HCl (pH 7.5). The enzyme itself was the only substrate present (since autophosphorylation occurs); 100 uM 1NA-PP1 was used as a control inhibitor. Incubation time was 3 hours.
T5 sequence (O96214 whole entry): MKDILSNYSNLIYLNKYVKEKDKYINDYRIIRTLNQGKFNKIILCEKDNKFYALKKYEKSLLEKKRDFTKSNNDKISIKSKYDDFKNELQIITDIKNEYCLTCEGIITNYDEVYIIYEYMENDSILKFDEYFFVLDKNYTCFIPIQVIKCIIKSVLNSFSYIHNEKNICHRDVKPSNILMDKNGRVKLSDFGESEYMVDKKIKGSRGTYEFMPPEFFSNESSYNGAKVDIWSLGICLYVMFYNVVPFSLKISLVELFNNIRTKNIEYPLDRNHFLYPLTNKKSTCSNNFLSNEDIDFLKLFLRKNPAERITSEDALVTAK

SMILES	pIC50 [1]	pIC50 [2]	pIC50 (Lysine--tRNA ligase)	pIC50 [3]	pIC50 (Proline--tRNA ligase)	pIC50 [4]	pIC50 [5]
Nc1nc(Nc2cccc(F)c2)nc2ccccc12	< 6.00	< 6.00	< 5.60	< 6.00	< 5.60	< 6.00	< 6.00
COc1ccc(/C=C2/SC(=Nc3ccccc3)NC2=O)cc1	< 6.00	< 6.00	< 5.60	< 6.00	< 5.60	< 6.00	< 6.00
O=C(NC1CCN(Cc2ccccc2)CC1)c1cc2nc(-c3ccc(Cl)s3)cc(C(F)(F)F)n2n1	< 6.00	< 6.00	< 5.60	< 6.00	< 5.60	< 6.00	< 6.00
Cc1sc(NC(=O)c2ccccc2)c(C(c2cccs2)N2CCN(c3ccccc3)CC2)c1C (stereo unspecified)	< 6.00	< 6.00	< 5.60	< 6.00	< 5.60	< 6.00	< 6.00
N#Cc1nc(Cc2cccc3ccccc23)oc1N1CCN(C(c2ccccc2)c2ccccc2)CC1	< 6.00	< 6.00	< 5.60	< 6.00	< 5.60	< 6.00	< 6.00
COc1cccc(Nc2nc(N)c3ccccc3n2)c1	< 6.00	< 6.00	< 5.60	< 6.00	< 5.60	< 6.00	< 6.00
COc1ccc(CNC(=O)c2cc3c(=O)n4ccccc4nc3n(CCc3ccccc3)c2=N)cc1	< 6.00	< 6.00	< 5.60	< 6.00	< 5.60	< 6.00	< 6.00
Cn1c(=O)n(C)c2cc(CNCCNc3ccnc4cc(Cl)ccc34)ccc21	< 6.00	< 6.00	< 5.60	< 6.00	< 5.60	< 6.00	< 6.00
